From publication PMC8373063 (2021)

Experiments:
Assay in all cases: fluorescence polarization
[1] = system: RNA Seq10 (RNA, single strand) UAAAGGAAGGU; conditions: 100 mM NaCl; 20 mM HEPES, 25 °C; 0.5 μM SMN-C2
[2] = system: RNA Seq13 (RNA, single strand) UGAAGAAAGGU; conditions: 100 mM NaCl; 20 mM HEPES, 25 °C; 0.5 μM SMN-C2
[3] = system: RNA Seq14 (RNA, single strand) AGAAGGUAGGU; conditions: 100 mM NaCl; 20 mM HEPES, 25 °C; 0.5 μM SMN-C2
[4] = system: DNA Seq8 (DNA, single strand) TGAAGGAAGTT; conditions: 100 mM NaCl, 1 mM MgCl2; 20 mM HEPES, 25 °C; 0.5 μM SMN-C2
[5] = system: DNA Seq11 (DNA, single strand) TGGAGGAAGGT; conditions: 100 mM NaCl, 1 mM MgCl2; 20 mM HEPES, 25 °C; 0.5 μM SMN-C2
[6] = system: DNA Seq12 (DNA, single strand) TGAAAGAAGGT; conditions: 100 mM NaCl, 1 mM MgCl2; 20 mM HEPES, 25 °C; 0.5 μM SMN-C2
[7] = system: DNA Seq13 (DNA, single strand) TGAAGAAAGGT; conditions: 100 mM NaCl, 1 mM MgCl2; 20 mM HEPES, 25 °C; 0.5 μM SMN-C2
[8] = system: DNA Seq14 (DNA, single strand) AGAAGGTAGGT; conditions: 100 mM NaCl, 1 mM MgCl2; 20 mM HEPES, 25 °C; 0.5 μM SMN-C2
[9] = system: DNA Seq15 (DNA, single strand) TGAAGGATGGT; conditions: 100 mM NaCl, 1 mM MgCl2; 20 mM HEPES, 25 °C; 0.5 μM SMN-C2
[10] = system: DNA Seq17 (DNA, single strand) TGAAGGAAGAT; conditions: 100 mM NaCl, 1 mM MgCl2; 20 mM HEPES, 25 °C; 0.5 μM SMN-C2
[11] = system: DNA S26 (DNA, single strand) TGAAGGAAGG; conditions: 100 mM NaCl, 1 mM MgCl2; 20 mM HEPES, 25 °C; 0.5 μM SMN-C2
[12] = system: DNA S27 (DNA, single strand) AGAAGGAAGG; conditions: 100 mM NaCl, 1 mM MgCl2; 20 mM HEPES, 25 °C; 0.5 μM SMN-C2
[13] = system: DNA S8 (DNA, single strand) AAATGAAGGAAGGTGCTC; conditions: 100 mM NaCl, 1 mM MgCl2; 20 mM HEPES, 25 °C; 0.5 μM SMN-C2
[14] = system: S4 (DNA, single strand) AAAAAGAAGAAGGTGCTC; conditions: 100 mM NaCl, 1 mM MgCl2; 20 mM HEPES, 25 °C, 0.5 μM compound
[15] = system: S7 (DNA, single strand) AATAGAAGGAAGGTGCTC; conditions: 100 mM NaCl, 1 mM MgCl2; 20 mM HEPES, 25 °C, 0.5 μM compound
[16] = system: S12 (DNA, single strand) AAAAGAAGTAAGGTGCTC; conditions: 100 mM NaCl, 1 mM MgCl2; 20 mM HEPES, 25 °C, 0.5 μM compound
[17] = system: S16 (DNA, single strand) AAAAGAAGGAAGTTGCTC; conditions: 100 mM NaCl, 1 mM MgCl2; 20 mM HEPES, 25 °C, 0.5 μM compound
[18] = system: S22 (DNA, single strand) AAAAGAAAGAAGGTGCTC; conditions: 100 mM NaCl, 1 mM MgCl2; 20 mM HEPES, 25 °C, 0.5 μM compound
[19] = system: DNA Seq20 (DNA, hairpin) TGAAGGAAGGTTTCGACCTTCCTTCA; conditions: 100 mM NaCl, 1 mM MgCl2; 20 mM HEPES, 25 °C, 0.5 μM compound
[20] = system: DNA Seq21 (DNA, hairpin) GCGCCGACTGAAGGAAGGAGTCGGCGC; conditions: 100 mM NaCl, 1 mM MgCl2; 20 mM HEPES, 25 °C, 0.5 μM compound
[21] = system: RNA Seq21 (RNA, hairpin) GCGCCGACUGAAGGAAGGAGUCGGCGC; conditions: 100 mM NaCl; 20 mM HEPES, 25 °C, 0.5 μM compound
[22] = system: DNA Seq22 (DNA, other) GTGCCAGTTCGCTGGCACTGAAGGAAGGT; conditions: 100 mM NaCl, 1 mM MgCl2; 20 mM HEPES, 25 °C, 0.5 μM compound
[23] = system: RNA Seq22 (RNA, other) GUGCCAGUUCGCUGGCACUGAAGGAAGGU; conditions: 100 mM NaCl; 20 mM HEPES, 25 °C, 0.5 μM compound
[24] = system: DNA Seq23 (DNA, mismatch bulge abasic) GCCAGGCGCACTTTCGAGTGCGCGAAGGAAGGCTGGC; conditions: 100 mM NaCl, 1 mM MgCl2; 20 mM HEPES, 25 °C, 0.5 μM compound

Kd [1]: > 100 µM | Kd [2]: > 100 µM | Kd [3]: 9.9 ± 0.8 µM | Kd [4]: 14.7 ± 0.7 µM | Kd [5]: 57.3 ± 20.0 µM | Kd [6]: 17.6 ± 3.4 µM | Kd [7]: > 100 µM | Kd [8]: > 100 µM | Kd [9]: 41.1 ± 4.4 µM | Kd [10]: 56.4 ± 10.4 µM | Kd [11]: 6.2 ± 1.0 µM | Kd [12]: 11.6 ± 1.7 µM | Kd [13]: 12.4 ± 0.4 µM | Kd [14]: > > 50 µM | Kd [15]: 17.3 ± 1.7 µM | Kd [16]: 37.4 ± 6.7 µM | Kd [17]: 48.9 ± 12.2 µM | Kd [18]: 44.7 ± 7.2 µM | Kd [19]: 52.0 ± 25.7 µM | Kd [20]: 12.8 ± 4.7 µM | Kd [21]: 4.6 ± 0.6 µM | Kd [22]: 10.0 ± 0.5 µM | Kd [23]: 11.0 ± 0.8 µM | Kd [24]: 1.1 ± 0.2 µM
Structure (SMILES): CCN1CCN(c2ccc3cc(-c4cn5cc(C)nc(C)c5n4)c(=O)oc3c2)C[C@@H]1C
